# Results from publication PMC3993903 (Molecular pharmaceutics, 2014).
# Assays:
# Assay type in all cases: cell-based, human
# [1] = test system: drug-resistant cervical cancer cells KB-V1; experiment: Cellular uptake by KB-V1 cells; conditions: 5 µM, absence or presence of equal molar C8-Tat (5 µM), flow cytometry
# KB-3-1 cells = experiment: Cytotoxicity; conditions: 2 h treatment with 5 or 15 µM, further 46 h in drug-free medium, SRB, mean ± s.d. n = 3
# KB-V1 cells = experiment: Cytotoxicity; conditions: 2 h treatment with 5 or 15 µM, further 46 h in drug-free medium, SRB, mean ± s.d. n = 3
structure (smiles),measurement,setting,value
"COc1cccc2c1C(=O)c1c(O)c3c(c(O)c1C2=O)C[C@@](O)(C(=O)CO)C[C@@H]3O[C@H]1C[C@H](N)[C@H](O)[C@H](C)O1 [Dox, doxorubicin]",intracellular accumulation with or without C8-Tat treatment,[1],almost identical
same,short-term cytotoxicity (cell viability),KB-3-1 cells,toxicity toward drug-sensitive cells
same,short-term cytotoxicity (cell viability),KB-V1 cells,not on drug-resistant cells
